Values after ≈ are worked out from the molar mass of the structure shown.
Legend:
[1] = system: E. coli isolate 14 (qepA); assay: Cross-resistance MIC assay, clinical isolate; parameters: unit not given beside the values; conditions: resistance QL, protocol as section 5 (CAMHB; there µg mL-1), unit not given in Table S5
[2] = system: E. coli isolate 8 (KPC-2+TEM-1+OXA-9); assay: Cross-resistance MIC assay, clinical isolate; parameters: unit not given beside the values; conditions: E. coli isolate 8, KPC-2+TEM-1+OXA-9, resistance ESBL-CP; protocol as section 5 (CAMHB; there µg mL-1); unit not given in Table S5
[3] = system: E. coli isolate 12 (ARM-A); assay: Cross-resistance MIC assay, clinical isolate; parameters: unit not given beside the values; conditions: resistance AG, protocol as section 5 (CAMHB; there µg mL-1), unit not given in Table S5
[4] = system: E. coli isolate 5 (TEM-3); assay type: cell-based; parameters: unit not given beside the values; conditions: E. coli isolate 5, TEM-3, resistance ESBL; protocol as section 5 (CAMHB; there µg mL-1); unit not given in Table S5
Method: (§1) 5. Determination of the minimal inhibitory concentration (MIC) in vitro The MIC of Corramycin was evaluated following the Clinical & Laboratory Standard Institute (CLSI; https://clsi.org) and EUCAST (https://eucast.org) guidelines. First, inoculi of the bacterial test strains were prepared by culturing isolated colonies in cation-adjusted Müller Hinton broth (CAMHB; 2 g L-1 beef infusion solids, 1.5 g L-1 starch, 17.5 g L-1 casein hydrolysates, final pH 7.4) at 37 °C and 180 rpm for 18 h. Next, Corramycin, which was dissolved in DMSO, was transferred into the first row of a 96-well plate to reach an end concentration of 64 µg mL-1 (in 100 µL total volume). A 1:1 serial dilution in cation-adjusted Mueller Hinton broth (CAMHB) of the test compound was done from the top row to the bottom […]
(§2) the respective test strains were transferred into the wells, reaching a total volume of 100 µL and 5x10^5 colony-forming units (CFU) mL-1. After a 20 to 22 h of incubation, the optical density was evaluated on a microplate reader and the MIC endpoint was determined as the lowest concentration of antibiotic at which there was no visible growth observed. Each MIC experiment was performed in duplicates. Table […]
(§3) (1 picture or pasted object on this page, not shown here)
(§4) 6. Investigation of the cross-resistance of Corramycin to clinically used antibiotics […]
(§5) of the MIC according to the protocol described in the previous section. The MIC of the respective antibiotics against 16 clinical isolate E. coli strains, which were obtained from P. Nordmann’s collection and were classified Carbapenem-resistant, Aminoglycoside-resistant or Quinolone-resistant, was […]
(§6) extended-spectrum β-lactamase; CP: carbapenem; AG: aminoglycoside; QL: quinolone; PRP

[5] = system: E. coli isolate 16 (QnrS1); assay: Cross-resistance MIC assay, clinical isolate; parameters: unit not given beside the values; conditions: E. coli isolate 16, QnrS1, resistance QL; protocol as section 5 (CAMHB; there µg mL-1); unit not given in Table S5
[6] = system: E. coli isolate 1 (CTX-M-1); assay: Cross-resistance MIC assay, clinical isolate; parameters: unit not given beside the values; conditions: E. coli isolate 1, CTX-M-1, resistance ESBL; protocol as section 5 (CAMHB; there µg mL-1); unit not given in Table S5
[7] = system: E. coli isolate 11 (RMT-B); assay: Cross-resistance MIC assay, clinical isolate; assay type: cell-based; conditions: resistance AG, protocol as section 5 (CAMHB; there µg mL-1), unit not given in Table S5
Method: as §1, §2, §3, §4, §5, §6

[8] = system: E. coli isolate 6 (IMP-1); assay: Cross-resistance MIC assay, clinical isolate; assay type: cell-based; conditions: E. coli isolate 6, IMP-1, resistance ESBL-CP; protocol as section 5 (CAMHB; there µg mL-1); unit not given in Table S5
Method: as §1, §2, §3, §4, §5, §6

[9] = system: E. coli isolate 10 (OXA-48+CTX-M-15); assay: Cross-resistance MIC assay, clinical isolate; assay type: cell-based; conditions: E. coli isolate 10, OXA-48+CTX-M-15, resistance ESBL-CP; protocol as section 5 (CAMHB; there µg mL-1); unit not given in Table S5
Method: as §1, §2, §3, §4, §5, §6

[10] = system: E. coli isolate 7 (IMP-4); assay: Cross-resistance MIC assay, clinical isolate; assay type: cell-based; conditions: E. coli isolate 7, IMP-4, resistance ESBL-CP; protocol as section 5 (CAMHB; there µg mL-1); unit not given in Table S5
Method: as §1, §2, §3, §4, §5, §6

[11] = system: E. coli isolate 3 (OXA-30); assay: Cross-resistance MIC assay, clinical isolate; assay type: cell-based; parameters: unit not given beside the values; conditions: E. coli isolate 3, OXA-30, resistance ESBL-CP; protocol as section 5 (CAMHB; there µg mL-1); unit not given in Table S5
Method: as §1, §2, §3, §4, §5, §6

[12] = system: E. coli isolate 2 (CTX-M-2); assay: Cross-resistance MIC assay, clinical isolate; assay type: cell-based; parameters: unit not given beside the values; conditions: E. coli isolate 2, CTX-M-2, resistance ESBL; protocol as section 5 (CAMHB; there µg mL-1); unit not given in Table S5
Method: as §1, §2, §3, §4, §5, §6

[13] = system: E. coli isolate 4 (SHV-2a); assay: Cross-resistance MIC assay, clinical isolate; parameters: unit not given beside the values; conditions: resistance ESBL, protocol as section 5 (CAMHB; there µg mL-1), unit not given in Table S5
[14] = system: E. coli isolate 9 (OXA-48); assay: Cross-resistance MIC assay, clinical isolate; parameters: unit not given beside the values; conditions: E. coli isolate 9, OXA-48, resistance ESBL-CP; protocol as section 5 (CAMHB; there µg mL-1); unit not given in Table S5
[15] = system: E. coli isolate 13 (RMT-C); assay: Cross-resistance MIC assay, clinical isolate; parameters: unit not given beside the values; conditions: resistance AG, protocol as section 5 (CAMHB; there µg mL-1), unit not given in Table S5
[16] = system: E. coli isolate 15 (qnrA1); assay: Cross-resistance MIC assay, clinical isolate; parameters: unit not given beside the values; conditions: E. coli isolate 15, qnrA1, resistance QL; protocol as section 5 (CAMHB; there µg mL-1); unit not given in Table S5

Compound | MIC [1] | MIC [2] | MIC [3] | MIC [4] | MIC [5] | MIC [6] | MIC [7] [µg/mL] | MIC [8] [µg/mL] | MIC [9] [µg/mL] | MIC [10] [µg/mL] | MIC [11] | MIC [12] | MIC [13] | MIC [14] | MIC [15] | MIC [16]
NC[C@H]1O[C@H](O[C@H]2[C@H](O)[C@@H](O[C@H]3O[C@H](CO)[C@@H](O)[C@H](N)[C@H]3O)[C@H](N)C[C@@H]2N)[C@H](N)C[C@@H]1O [Tobramycin] | 0.5 | 8 | > 64 | 16 | 32 | 2 | 1 (≈ 2.14 µM) | 2 (≈ 4.28 µM) | 1 (≈ 2.14 µM) | 16 (≈ 34.2 µM) | 2 | 2 | 32 | 32 | > 64 | 32
CO[C@H]1/C=C/O[C@@]2(C)Oc3c(C)c(O)c4c(O)c(c(/C=N/N5CCN(C)CC5)c(O)c4c3C2=O)NC(=O)/C(C)=C\C=C\[C@H](C)[C@H](O)[C@@H](C)[C@@H](O)[C@@H](C)[C@H](OC(C)=O)[C@@H]1C [Rifampicin] | – | – | > 64 | 16 | – | – | 16 (≈ 19.4 µM) | 16 (≈ 19.4 µM) | 16 (≈ 19.4 µM) | 16 (≈ 19.4 µM) | – | – | 16 | 64 | – | > 64
CO/N=C(\C(=O)N[C@@H]1C(=O)N2C(C(=O)O)=C(COC(C)=O)CS[C@H]12)c1csc(N)n1 [Cefotaxim] | > 64 | > 64 | > 64 | 64 | > 64 | > 64 | > 64 | 0.25 (≈ 0.549 µM) | > 64 | > 64 | 1 | 64 | 64 | > 64 | > 64 | 32
CN(C)[C@@H]1C(O)=C(C(N)=O)C(=O)[C@@]2(O)C(O)=C3C(=O)c4c(O)cccc4[C@@](C)(O)[C@H]3C[C@@H]12 [Tetracyclin] | 4 | – | – | – | – | – | – | – | – | – | – | 32 | – | – | – | 4
CO[C@@]1(NC(=O)Cc2cccs2)C(=O)N2C(C(=O)O)=C(COC(N)=O)CS[C@@H]21 [Cefoxitin] | 8 | 64 | 8 | 4 | 8 | 8 | 16 (≈ 37.4 µM) | 16 (≈ 37.4 µM) | 16 (≈ 37.4 µM) | > 64 | 4 | 4 | 4 | 16 | > 64 | 8
